Measurements taken from the supplement of paper PMC10307832.

Legend:
Experiment in all cases: relative viability (nuclei count vs DMSO), 5 days (fraction); higher = more cells survive
LCLC-97TM1 = system: LCLC-97TM1
How it was run: (§1)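 Lung cancer cell lines in 1536-well plates were dosed by pin tool the day after seeding, either with one drug alone or with a fixed anchor-drug dose plus five library-drug doses (not always all listed) in √10 steps. After 5 days, cells were fixed and their nuclei stained in one step (final 0.05% Triton X-100, 1% formaldehyde, 1 ug/ml Hoechst), then counted on 4× images. Relative viability is the nuclei count in treated wells divided by that in vehicle wells. Values are medians of duplicate plates.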

NCI-H2085 = system: NCI-H2085
How it was run: as §1

NCI-H322M = system: NCI-H322M
How it was run: as §1

LXF-289 = system: LXF-289
How it was run: as §1

H3255 = system: H3255
How it was run: as §1

EMC-BAC-2 = system: EMC-BAC-2
How it was run: as §1

NCI-H2023 = system: NCI-H2023
How it was run: as §1

SK-LU-1 = system: SK-LU-1
How it was run: as §1

NCI-H2347 = system: NCI-H2347
How it was run: as §1

EPLC-272H = system: EPLC-272H
How it was run: as §1

SW 1573 = system: SW 1573
How it was run: as §1

NCI-H727 = system: NCI-H727
How it was run: as §1

NCI-H2126 = system: NCI-H2126
How it was run: as §1

NCI-H1915 = system: NCI-H1915
How it was run: as §1

NCI-H2009 = system: NCI-H2009
How it was run: as §1

NCI-H1993 = system: NCI-H1993
How it was run: as §1

NCI-H1563 = system: NCI-H1563
How it was run: as §1

NCI-H647 = system: NCI-H647
How it was run: as §1

PC-14 = system: PC-14
How it was run: as §1

NCI-H661 = system: NCI-H661
How it was run: as §1

NCI-H1734 = system: NCI-H1734
How it was run: as §1

HOP-62 = system: HOP-62
How it was run: as §1

CCN(CC)CCCCNc1ncc2cc(-c3cc(OC)cc(OC)c3)c(NC(=O)NC(C)(C)C)nc2n1 + CS(=O)(=O)CCNCc1ccc(-c2ccc3ncnc(Nc4ccc(OCc5cccc(F)c5)c(Cl)c4)c3c2)o1 [Lapatinib] (partner 2 µM)
relative viability (LCLC-97TM1; first compound 0.03162 µM): 0.958
relative viability (LCLC-97TM1; first compound 0.1 µM): 1.13
relative viability (LCLC-97TM1; first compound 0.3162 µM): 0.923
relative viability (LCLC-97TM1; first compound 1 µM): 1.12
relative viability (NCI-H2085; first compound 0.01 µM): 0.791
relative viability (NCI-H2085; first compound 0.03162 µM): 0.691
relative viability (NCI-H2085; first compound 0.1 µM): 0.828
relative viability (NCI-H2085; first compound 0.3162 µM): 0.85
relative viability (NCI-H2085; first compound 1 µM): 0.68
relative viability (NCI-H322M; first compound 0.01 µM): 0.549
relative viability (NCI-H322M; first compound 0.03162 µM): 0.584
relative viability (NCI-H322M; first compound 0.1 µM): 0.598
relative viability (NCI-H322M; first compound 0.3162 µM): 0.619
relative viability (NCI-H322M; first compound 1 µM): 0.528
relative viability (LXF-289; first compound 0.01 µM): 0.893
relative viability (LXF-289; first compound 0.03162 µM): 0.944
relative viability (LXF-289; first compound 0.1 µM): 0.941
relative viability (LXF-289; first compound 0.3162 µM): 0.865
relative viability (LXF-289; first compound 1 µM): 0.599
relative viability (H3255; first compound 0.01 µM): 0.26
relative viability (H3255; first compound 0.03162 µM): 0.235
relative viability (H3255; first compound 0.1 µM): 0.25
relative viability (H3255; first compound 0.3162 µM): 0.258
relative viability (H3255; first compound 1 µM): 0.227
relative viability (EMC-BAC-2; first compound 0.01 µM): 0.946
relative viability (EMC-BAC-2; first compound 0.03162 µM): 0.941
relative viability (EMC-BAC-2; first compound 0.1 µM): 0.961
relative viability (EMC-BAC-2; first compound 0.3162 µM): 0.999
relative viability (EMC-BAC-2; first compound 1 µM): 0.859
relative viability (NCI-H2023; first compound 0.01 µM): 0.748
relative viability (NCI-H2023; first compound 0.03162 µM): 0.94
relative viability (NCI-H2023; first compound 0.1 µM): 1.17
relative viability (NCI-H2023; first compound 0.3162 µM): 0.919
relative viability (NCI-H2023; first compound 1 µM): 0.798
relative viability (SK-LU-1; first compound 0.01 µM): 0.985
relative viability (SK-LU-1; first compound 0.03162 µM): 0.975
relative viability (SK-LU-1; first compound 0.1 µM): 0.947
relative viability (SK-LU-1; first compound 0.3162 µM): 1.2
relative viability (SK-LU-1; first compound 1 µM): 0.638
relative viability (NCI-H2347; first compound 0.01 µM): 0.923
relative viability (NCI-H2347; first compound 0.03162 µM): 0.79
relative viability (NCI-H2347; first compound 0.1 µM): 1.06
relative viability (NCI-H2347; first compound 0.3162 µM): 0.878
relative viability (NCI-H2347; first compound 1 µM): 0.931
relative viability (EPLC-272H; first compound 0.01 µM): 1.05
relative viability (EPLC-272H; first compound 0.1 µM): 0.956
relative viability (EPLC-272H; first compound 0.3162 µM): 0.922
relative viability (EPLC-272H; first compound 1 µM): 0.642
relative viability (SW 1573; first compound 0.01 µM): 1.11
relative viability (SW 1573; first compound 0.03162 µM): 1.1
relative viability (SW 1573; first compound 0.1 µM): 1.19
relative viability (SW 1573; first compound 0.3162 µM): 0.978
relative viability (SW 1573; first compound 1 µM): 1.12
relative viability (NCI-H727; first compound 0.01 µM): 0.705
relative viability (NCI-H727; first compound 0.03162 µM): 0.743
relative viability (NCI-H727; first compound 0.1 µM): 0.944
relative viability (NCI-H727; first compound 0.3162 µM): 0.967
relative viability (NCI-H727; first compound 1 µM): 1.08
relative viability (NCI-H2126; first compound 0.01 µM): 0.786
relative viability (NCI-H2126; first compound 0.03162 µM): 0.72
relative viability (NCI-H2126; first compound 0.1 µM): 0.796
relative viability (NCI-H2126; first compound 0.3162 µM): 0.808
relative viability (NCI-H2126; first compound 1 µM): 0.726
relative viability (NCI-H1915; first compound 0.01 µM): 1.1
relative viability (NCI-H1915; first compound 0.03162 µM): 1.03
relative viability (NCI-H1915; first compound 0.1 µM): 0.775
relative viability (NCI-H1915; first compound 0.3162 µM): 1.1
relative viability (NCI-H1915; first compound 1 µM): 0.971
relative viability (NCI-H2009; first compound 0.01 µM): 0.898
relative viability (NCI-H2009; first compound 0.03162 µM): 0.971
relative viability (NCI-H2009; first compound 0.1 µM): 0.956
relative viability (NCI-H2009; first compound 0.3162 µM): 0.932
relative viability (NCI-H2009; first compound 1 µM): 1.43
relative viability (NCI-H1993; first compound 0.01 µM): 0.85
relative viability (NCI-H1993; first compound 0.03162 µM): 0.719
relative viability (NCI-H1993; first compound 0.1 µM): 0.774
relative viability (NCI-H1993; first compound 0.3162 µM): 0.785
relative viability (NCI-H1993; first compound 1 µM): 0.738
relative viability (NCI-H1563; first compound 0.01 µM): 0.884
relative viability (NCI-H1563; first compound 0.03162 µM): 0.895
relative viability (NCI-H1563; first compound 0.1 µM): 0.849
relative viability (NCI-H1563; first compound 0.3162 µM): 0.792
relative viability (NCI-H1563; first compound 1 µM): 0.621
relative viability (NCI-H647; first compound 0.01 µM): 1.22
relative viability (NCI-H647; first compound 0.03162 µM): 1.25
relative viability (NCI-H647; first compound 0.1 µM): 1.28
relative viability (NCI-H647; first compound 0.3162 µM): 1.48
relative viability (NCI-H647; first compound 1 µM): 0.493
relative viability (PC-14; first compound 0.01 µM): 0.318
relative viability (PC-14; first compound 0.03162 µM): 0.373
relative viability (PC-14; first compound 0.1 µM): 0.391
relative viability (PC-14; first compound 0.3162 µM): 0.362
relative viability (PC-14; first compound 1 µM): 0.237
relative viability (NCI-H661; first compound 0.01 µM): 0.569
relative viability (NCI-H661; first compound 0.03162 µM): 0.457
relative viability (NCI-H661; first compound 0.1 µM): 0.432
relative viability (NCI-H661; first compound 0.3162 µM): 0.502
relative viability (NCI-H661; first compound 1 µM): 0.493
relative viability (NCI-H1734; first compound 0.01 µM): 1.06
relative viability (NCI-H1734; first compound 0.03162 µM): 1.2
relative viability (NCI-H1734; first compound 0.1 µM): 1.39
relative viability (NCI-H1734; first compound 0.3162 µM): 1.13
relative viability (NCI-H1734; first compound 1 µM): 1.02
relative viability (HOP-62; first compound 0.01 µM): 1.01
relative viability (HOP-62; first compound 0.03162 µM): 1.16
relative viability (HOP-62; first compound 0.1 µM): 1.19
relative viability (HOP-62; first compound 0.3162 µM): 1.09
relative viability (HOP-62; first compound 1 µM): 1.33
